Converted amounts (≈) assume the structure as drawn.
tested on: Mycobacterium tuberculosis variant bovis; experiment: Antibacterial activity against Mycobacterium bovis BCG assessed as bacterial growth inhibition; assay type: functional

O=C(NCCCOCCOCCOCCCNC(=O)c1ccc2c(c1)B(O)OC2)c1ccc2c(c1)COB2O and O=C(NCCOCCOCCNC(=O)c1ccc2c(c1)B(O)OC2)c1ccc2c(c1)COB2O are the same in MIC: 0.39 µM (≈ 0.211 µg/mL) for the first, 0.39 µM (≈ 0.183 µg/mL) for the second.

O=C(NCCNC(=O)c1ccc2c(c1)B(O)OC2)c1ccc2c(c1)B(O)OC2 gave an MIC of 0.78 µM (≈ 0.296 µg/mL).
